Patent US20260158017A1, “KIF18A INHIBITOR” (WIGEN BIOMEDICINE TECHNOLOGY (SHANGHAI) CO., LTD., priority 2021, published 2026)

System: HT-29 cells
Assay: In vitro anti-proliferative activity against HT-29 cells (intracellular ATP content, 72 h)
Type: cell-based
Conditions: Homo sapiens, 72 h after dosing
Procedure: Biological Example 2. In Vitro Anti-Proliferative Activity of the Compounds of the Present Invention Against HT-29 Cells
(§1) HT-29 cells were seeded on a 384-well plate at 3000 cells/well. After overnight adherence culture, DMSO or the compounds serially 1:5-diluted from 5 μM were added. The viability of the cells was assessed 72 h after dosing by measuring the intracellular ATP content. The inhibition percentages of viable cells by the compounds were calculated by comparing with the DMSO group, and the IC50 values were also calculated.

Row | Compound | IC50 [nM]
1 | CNc1ccc(NC(=O)c2ccc(NS(=O)(=O)CCO)cc2N2CCC3(CC2)CC3)nc1N1CCC(F)(F)CC1 [Compound 643] | 34.2
2 | CN(C)c1ccc(NC(=O)c2ccc(NS(=O)(=O)CCO)cc2N2CCC3(CC2)CC3)nc1N1CCC(F)(F)CC1 [Compound 647] | 334
3 | O=C(Nc1ccc(OC(F)(F)F)c(N2CCC(F)(F)CC2)c1)c1ccc(NS(=O)(=O)CCO)cc1N1CCC2(CC1)CC2 [Compound 655] | 1170
4 | Nc1ccc(NC(=O)c2ccc(NS(=O)(=O)CCO)cc2N2CCC3(CC2)CC3)cc1N1CCC(F)(F)CC1 [Compound 701] | 76.7
5 | CN(C)c1ccc(C(=O)Nc2ccc(NS(=O)(=O)CCO)cc2N2CCC3(CC2)CC3)cc1N1CCC(F)(F)CC1 [Compound 703] | 184
6 | COc1ccc(NC(=O)c2ccc(NS(=O)(=O)CCO)cc2N2CCC(C)(C(F)(F)F)CC2)nc1N1CCC(F)(F)CC1 [Compound 833] | 52.9
7 | COc1ccc(NC(=O)c2ccc(NS(=O)(=O)CCO)cc2N2CCC3(CC2)CC3)nc1NCCC(F)(F)F [Compound 835] | 70.7

Continued, values first:

Row | IC50 [nM] | Compound
8 | 71.2 | CCOc1ccc(NC(=O)c2ccc(NS(=O)(=O)CCO)cc2N2CCC3(CC2)CC3)nc1N1CCC(F)(F)CC1 [Compound 702]
9 | 64.2 | CNc1ccc(C(=O)Nc2ccc(NS(=O)(=O)CCO)cc2N2CCC3(CC2)CC3)cc1N1CCC(F)(F)CC1 [Compound 704]
10 | 146 | CN(C)c1ccc(C(=O)Nc2ccc(NS(=O)(=O)CCO)cc2N2CCC3(CC2)CC3)nc1N1CCC(F)(F)CC1 [Compound 705]
11 | 253 | COc1c(C)cc(NC(=O)c2ccc(NS(=O)(=O)CCO)cc2N2CCC3(CC2)CC3)nc1N1CCC(F)(F)CC1 [Compound 836]

Biological target: T1, Recombinant human KIF18A (1-467His-tagged) protein (Homo sapiens, UniProt Q8NI77)
T1 construct: Recombinant human KIF18A (1-467His-tagged) protein; His; made in house
Assay: KIF18A enzyme assay (microtubule-stimulated ATPase activity, ADP-Glo)
Type: biochemical
Conditions: 30 nM KIF18A, 75 μM ATP, 30 μg/mL pig microtubules; read-out: Inhibitory activity against KIF18A IC50
In short: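 Buffer 15 mM Tris pH 7.5, 10 mM MgCl2, 0.01% Pluronic F-68, 1 μM paclitaxel, 30 μg/mL pig microtubules; reactions at room temperature. IC50 from inhibition relative to DMSO.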

T1 sequence (Q8NI77 1-467): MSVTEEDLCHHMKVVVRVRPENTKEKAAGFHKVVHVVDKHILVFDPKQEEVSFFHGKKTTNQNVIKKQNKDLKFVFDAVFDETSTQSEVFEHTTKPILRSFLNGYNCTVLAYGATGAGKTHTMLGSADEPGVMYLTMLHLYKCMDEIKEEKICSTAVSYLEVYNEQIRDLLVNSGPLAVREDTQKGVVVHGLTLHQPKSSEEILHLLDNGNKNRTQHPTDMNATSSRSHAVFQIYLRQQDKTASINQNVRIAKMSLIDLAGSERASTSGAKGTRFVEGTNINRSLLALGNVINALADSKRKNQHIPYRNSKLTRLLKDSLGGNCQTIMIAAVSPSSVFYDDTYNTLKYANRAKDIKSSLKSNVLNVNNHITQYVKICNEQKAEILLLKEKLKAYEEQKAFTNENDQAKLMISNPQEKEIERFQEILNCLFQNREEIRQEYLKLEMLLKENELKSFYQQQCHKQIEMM
T1 sequence (P02550 whole entry partner): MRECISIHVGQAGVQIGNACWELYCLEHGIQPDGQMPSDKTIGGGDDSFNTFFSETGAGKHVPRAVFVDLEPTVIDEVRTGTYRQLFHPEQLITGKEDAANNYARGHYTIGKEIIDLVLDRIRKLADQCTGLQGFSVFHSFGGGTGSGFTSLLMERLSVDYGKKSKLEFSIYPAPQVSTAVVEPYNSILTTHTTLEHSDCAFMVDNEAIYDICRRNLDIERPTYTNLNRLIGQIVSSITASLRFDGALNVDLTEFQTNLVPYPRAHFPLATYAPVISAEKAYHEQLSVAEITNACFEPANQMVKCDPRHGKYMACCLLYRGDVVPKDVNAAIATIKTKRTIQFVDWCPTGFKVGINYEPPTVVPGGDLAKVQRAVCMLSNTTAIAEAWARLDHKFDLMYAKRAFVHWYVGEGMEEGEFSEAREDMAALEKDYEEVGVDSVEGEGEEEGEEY
T1 sequence (P02554 whole entry partner): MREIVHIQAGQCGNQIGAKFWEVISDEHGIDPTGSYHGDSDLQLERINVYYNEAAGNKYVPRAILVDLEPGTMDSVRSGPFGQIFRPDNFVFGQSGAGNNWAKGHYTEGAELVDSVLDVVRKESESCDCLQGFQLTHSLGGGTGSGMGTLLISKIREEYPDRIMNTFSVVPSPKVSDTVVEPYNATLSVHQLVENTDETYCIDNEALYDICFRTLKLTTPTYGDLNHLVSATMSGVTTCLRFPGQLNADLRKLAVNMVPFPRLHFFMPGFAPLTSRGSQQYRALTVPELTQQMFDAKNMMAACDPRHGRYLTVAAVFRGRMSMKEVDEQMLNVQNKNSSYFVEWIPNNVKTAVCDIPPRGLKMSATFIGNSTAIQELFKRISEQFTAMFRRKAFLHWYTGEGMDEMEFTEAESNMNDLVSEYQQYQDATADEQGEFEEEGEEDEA

Row | Compound | IC50 [nM]
12 | CSc1ccc(NC(=O)c2ccc(NS(=O)(=O)CCO)cc2N2CCC3(CC2)CC3)nc1N1CCO[C@H](C)C1 [Compound 594] | ≤ 100
13 | CSc1ccc(NC(=O)c2ccc(NS(=O)(=O)CCO)cc2N2CCC3(CC2)CC3)nc1N1CCO[C@@H](C)C1 [Compound 595] | ≤ 100
14 | CSc1ccc(NC(=O)c2ccc(NS(=O)(=O)CCO)cc2N2CCC3(CC2)CC3)nc1N1CC(F)(F)C1 [Compound 596] | ≤ 100
15 | CSc1ccc(NC(=O)c2ccc(NS(=O)(=O)CCO)cc2N2CCC3(CC2)CC3)nc1OCCC(F)(F)F [Compound 597] | ≤ 100
16 | CSc1ccc(NC(=O)c2ccc(NS(=O)(=O)CCO)cc2N2CCC3(CC2)CC3)nc1OC1CCC1 [Compound 599] | ≤ 100
17 | CSc1ccc(NC(=O)c2ccc(NS(=O)(=O)CCO)cc2N2CCC3(CC2)CC3)nc1NC(C)(C)CO [Compound 603] | ≤ 100
18 | CSc1ccc(NC(=O)c2ccc(NS(=O)(=O)[C@H](C)CO)cc2N2CCC3(CC2)CC3)nc1N1CCC(F)(F)CC1 [Compound 606] | ≤ 100
19 | CSc1ccc(NC(=O)c2cnc(NS(=O)(=O)CCO)cc2N2CCC3(CC2)CC3)cc1N1CCO[C@H](C)C1 [Compound 610] | ≤ 100
20 | CSc1ccc(NC(=O)c2cnc(NS(=O)(=O)CCO)cc2N2CCC3(CC2)CC3)cc1N1CCC2(CC2)C1 [Compound 614] | ≤ 100
21 | CSc1ccc(NC(=O)c2cnc(NS(=O)(=O)CCO)cc2N2CCC3(CC2)CC3)cc1OC1CCC1 [Compound 615] | ≤ 100
22 | CSc1ccc(NC(=O)c2cnc(NS(=O)(=O)CCO)cc2N2CCC3(CC2)CC3)cc1N1CCC(C)(F)C1 (stereo not drawn) [Compound 616] | ≤ 100
23 | CSc1ccc(NC(=O)c2cnc(NS(=O)(=O)CCO)cc2N2CCC3(CC2)CC3)cc1N1CCC(F)CC1 [Compound 617] | ≤ 100
24 | CSc1ccc(NC(=O)c2cnc(NS(=O)(=O)CCO)cc2N2CCC3(CC2)CC3)cc1N1CC2CC2C1 (stereo not drawn) [Compound 618] | ≤ 100
25 | CSc1ccc(NC(=O)c2cnc(NS(=O)(=O)CCO)cc2N2CCC3(CC2)CC3)cc1NC(C)(C)CO [Compound 619] | ≤ 100
26 | CSc1ccc(NC(=O)c2cnc(NS(=O)(=O)CCO)cc2N2CCC3(CC2)CC3)cc1N1CCOCC1 [Compound 620] | ≤ 100
27 | CSc1ccc(NC(=O)c2cnc(NS(=O)(=O)[C@@H](C)CO)cc2N2CCC3(CC2)CC3)cc1N1CCC(F)(F)CC1 [Compound 621] | ≤ 100
28 | CSc1ccc(NC(=O)c2cnc(NS(=O)(=O)CCO)cc2N2CCC3(CC2)CC3)nc1N1CCO[C@H](C)C1 [Compound 626] | ≤ 100
29 | CSc1ccc(NC(=O)c2cnc(NS(=O)(=O)CCO)cc2N2CCC3(CC2)CC3)nc1N1CCO[C@@H](C)C1 [Compound 627] | ≤ 100
30 | CSc1ccc(NC(=O)c2cnc(NS(=O)(=O)CCO)cc2N2CCC3(CC2)CC3)nc1N1CC(F)(F)C1 [Compound 628] | ≤ 100
31 | CSc1ccc(NC(=O)c2cnc(NS(=O)(=O)CCO)cc2N2CCC3(CC2)CC3)nc1OCCC(F)(F)F [Compound 629] | ≤ 100
32 | CSc1ccc(NC(=O)c2cnc(NS(=O)(=O)CCO)cc2N2CCC3(CC2)CC3)nc1OC1CCC1 [Compound 631] | ≤ 100
33 | CSc1ccc(NC(=O)c2cnc(NS(=O)(=O)CCO)cc2N2CCC3(CC2)CC3)nc1NC(C)(C)CO [Compound 635] | ≤ 100
34 | CSc1ccc(NC(=O)c2cnc(NS(=O)(=O)[C@@H](C)CO)cc2N2CCC3(CC2)CC3)nc1N1CCC(F)(F)CC1 [Compound 637] | ≤ 100
35 | CSc1ccc(NC(=O)c2cnc(NS(=O)(=O)[C@H](C)CO)cc2N2CCC3(CC2)CC3)nc1N1CCC(F)(F)CC1 [Compound 638] | ≤ 100
36 | CSc1ccc(NC(=O)c2cnc(NS(=O)(=O)[C@H](C)CO)cc2N2CCC3(CC2)CC3)nc1N1CCO[C@H](C)C1 [Compound 640] | ≤ 100

Further lines, results first:

Row | IC50 [nM] | Compound
37 | ≤ 100 | CSc1ccc(NC(=O)c2ccc(NS(=O)(=O)CCO)cc2N2CCC3(CC2)CC3)nc1N1CCC2(CC2)C1 [Compound 598]
38 | ≤ 100 | CSc1ccc(NC(=O)c2ccc(NS(=O)(=O)CCO)cc2N2CCC3(CC2)CC3)nc1N1CCC(C)(F)C1 (stereo not drawn) [Compound 600]
39 | ≤ 100 | CSc1ccc(NC(=O)c2ccc(NS(=O)(=O)CCO)cc2N2CCC3(CC2)CC3)nc1N1CCC(F)CC1 [Compound 601]
40 | ≤ 100 | CSc1ccc(NC(=O)c2ccc(NS(=O)(=O)CCO)cc2N2CCC3(CC2)CC3)nc1N1CC2CC2C1 (stereo not drawn) [Compound 602]
41 | ≤ 100 | CSc1ccc(NC(=O)c2ccc(NS(=O)(=O)CCO)cc2N2CCC3(CC2)CC3)nc1N1CCOCC1 [Compound 604]
42 | ≤ 100 | CSc1ccc(NC(=O)c2ccc(NS(=O)(=O)[C@@H](C)CO)cc2N2CCC3(CC2)CC3)nc1N1CCC(F)(F)CC1 [Compound 605]
43 | ≤ 100 | CSc1ccc(NC(=O)c2ccc(NS(=O)(=O)[C@@H](C)CO)cc2N2CCC3(CC2)CC3)nc1N1CCO[C@H](C)C1 [Compound 607]
44 | ≤ 100 | CSc1ccc(NC(=O)c2ccc(NS(=O)(=O)[C@H](C)CO)cc2N2CCC3(CC2)CC3)nc1N1CCO[C@H](C)C1 [Compound 608]
45 | ≤ 100 | CSc1ccc(NC(=O)c2cnc(NS(=O)(=O)CCO)cc2N2CCC3(CC2)CC3)cc1N1CCC(F)(F)CC1 [Compound 609]
46 | ≤ 100 | CSc1ccc(NC(=O)c2cnc(NS(=O)(=O)CCO)cc2N2CCC3(CC2)CC3)cc1N1CCO[C@@H](C)C1 [Compound 611]
47 | ≤ 100 | CSc1ccc(NC(=O)c2cnc(NS(=O)(=O)CCO)cc2N2CCC3(CC2)CC3)cc1N1CC(F)(F)C1 [Compound 612]
48 | ≤ 100 | CSc1ccc(NC(=O)c2cnc(NS(=O)(=O)CCO)cc2N2CCC3(CC2)CC3)cc1OCCC(F)(F)F [Compound 613]
49 | ≤ 100 | CSc1ccc(NC(=O)c2cnc(NS(=O)(=O)[C@H](C)CO)cc2N2CCC3(CC2)CC3)cc1N1CCC(F)(F)CC1 [Compound 622]
50 | ≤ 100 | CSc1ccc(NC(=O)c2cnc(NS(=O)(=O)[C@@H](C)CO)cc2N2CCC3(CC2)CC3)cc1N1CCO[C@H](C)C1 [Compound 623]
51 | ≤ 100 | CSc1ccc(NC(=O)c2cnc(NS(=O)(=O)[C@H](C)CO)cc2N2CCC3(CC2)CC3)cc1N1CCO[C@H](C)C1 [Compound 624]
52 | ≤ 100 | CSc1ccc(NC(=O)c2cnc(NS(=O)(=O)CCO)cc2N2CCC3(CC2)CC3)nc1N1CCC(F)(F)CC1 [Compound 625]
53 | ≤ 100 | CSc1ccc(NC(=O)c2cnc(NS(=O)(=O)CCO)cc2N2CCC3(CC2)CC3)nc1N1CCC2(CC2)C1 [Compound 630]
54 | ≤ 100 | CSc1ccc(NC(=O)c2cnc(NS(=O)(=O)CCO)cc2N2CCC3(CC2)CC3)nc1N1CCC(C)(F)C1 (stereo not drawn) [Compound 632]
55 | ≤ 100 | CSc1ccc(NC(=O)c2cnc(NS(=O)(=O)CCO)cc2N2CCC3(CC2)CC3)nc1N1CCC(F)CC1 [Compound 633]
56 | ≤ 100 | CSc1ccc(NC(=O)c2cnc(NS(=O)(=O)CCO)cc2N2CCC3(CC2)CC3)nc1N1CC2CC2C1 (stereo not drawn) [Compound 634]
57 | ≤ 100 | CSc1ccc(NC(=O)c2cnc(NS(=O)(=O)CCO)cc2N2CCC3(CC2)CC3)nc1N1CCOCC1 [Compound 636]
58 | ≤ 100 | CSc1ccc(NC(=O)c2cnc(NS(=O)(=O)[C@@H](C)CO)cc2N2CCC3(CC2)CC3)nc1N1CCO[C@H](C)C1 [Compound 639]

System: HCT116 cells
Assay: In vitro anti-proliferative activity against HCT116 cells (intracellular ATP content, 72 h)
Type: cell-based
Conditions: Homo sapiens, HCT-116, 72 h after dosing
Procedure: Biological Example 3. In Vitro Anti-Proliferative Activity of the Compounds of the Present Invention Against HCT116 Cells
as §1, with “HCT116” for “HT-29”, “IC 50” for “IC50”

Row | Compound | IC50 [µM]
59 | CNc1ccc(NC(=O)c2ccc(NS(=O)(=O)CCO)cc2N2CCC3(CC2)CC3)nc1N1CCC(F)(F)CC1 [Compound 643] | > 10
60 | CN(C)c1ccc(NC(=O)c2ccc(NS(=O)(=O)CCO)cc2N2CCC3(CC2)CC3)nc1N1CCC(F)(F)CC1 [Compound 647] | > 10
61 | O=C(Nc1ccc(OC(F)(F)F)c(N2CCC(F)(F)CC2)c1)c1ccc(NS(=O)(=O)CCO)cc1N1CCC2(CC1)CC2 [Compound 655] | > 10
62 | Nc1ccc(NC(=O)c2ccc(NS(=O)(=O)CCO)cc2N2CCC3(CC2)CC3)cc1N1CCC(F)(F)CC1 [Compound 701] | > 10
63 | CN(C)c1ccc(C(=O)Nc2ccc(NS(=O)(=O)CCO)cc2N2CCC3(CC2)CC3)cc1N1CCC(F)(F)CC1 [Compound 703] | > 10
64 | COc1ccc(NC(=O)c2ccc(NS(=O)(=O)CCO)cc2N2CCC(C)(C(F)(F)F)CC2)nc1N1CCC(F)(F)CC1 [Compound 833] | > 10
65 | COc1ccc(NC(=O)c2ccc(NS(=O)(=O)CCO)cc2N2CCC3(CC2)CC3)nc1NCCC(F)(F)F [Compound 835] | > 10

More lines, now with the values ahead:

Row | IC50 [µM] | Compound
66 | > 10 | CCOc1ccc(NC(=O)c2ccc(NS(=O)(=O)CCO)cc2N2CCC3(CC2)CC3)nc1N1CCC(F)(F)CC1 [Compound 702]
67 | > 10 | CNc1ccc(C(=O)Nc2ccc(NS(=O)(=O)CCO)cc2N2CCC3(CC2)CC3)cc1N1CCC(F)(F)CC1 [Compound 704]
68 | > 10 | CN(C)c1ccc(C(=O)Nc2ccc(NS(=O)(=O)CCO)cc2N2CCC3(CC2)CC3)nc1N1CCC(F)(F)CC1 [Compound 705]
69 | > 10 | COc1c(C)cc(NC(=O)c2ccc(NS(=O)(=O)CCO)cc2N2CCC3(CC2)CC3)nc1N1CCC(F)(F)CC1 [Compound 836]
